Results from article PMC7129073 (Clinical Microbiology and Infection, 2015).

How the values were obtained:
Streptococcus pneumoniae = test: Susceptibility testing; type: cell-based; details: 99 isolates tested
Staphylococcus aureus [1] = test: Susceptibility testing; type: cell-based; details: conjunctival isolates 2000–2004
Enterobacter spp = test: E-test susceptibility; type: cell-based
enterococci = test: Disk diffusion, urine isolates of BPH patients; details: strains isolated post-operatively
[2] = system: Salmonella, other 49 serotypes; test: Disk diffusion, food isolates Spain; type: cell-based; details: n = 115
K. pneumoniae = test: MIC; type: cell-based, Klebsiella pneumoniae; details: BSAC
[3] = system: viridans group streptococci (VGS); test: MIC; type: cell-based; details: 107 strains
Shigella spp. = test: Disk diffusion, stool isolates Tehran; type: cell-based; details: 96 isolates
[4] = system: Salmonella serotype Enteritidis; test: Disk diffusion, food isolates Spain; type: cell-based; details: n = 96
Acinetobacter = test: Disk diffusion; type: cell-based; details: 37 isolates selected as resistant to beta-lactams
P. aeruginosa = test: Disk diffusion, urine isolates of BPH patients
E. coli [5] = test: Disk diffusion, urine isolates of BPH patients; details: strains isolated after operative intervention
Staphylococcus aureus [6] = test: EARSS Ireland, invasive isolates; type: cell-based
[7] = system: glycopeptide intermediate Staphylococcus species (GISS); test: VITEK II, screening plate and E test, blood isolates; type: cell-based, coagulase-negative Staphylococci; details: 73 GISS strains
Escherichia coli (ECO) = test: Broth microdilution; type: cell-based; details: 2001
Escherichia coli = test: EARSS Ireland, invasive isolates; type: cell-based; details: Jan'01–Jun'04, 2432 isolates
K. oxytoca = test: E-test susceptibility; type: cell-based, Klebsiella oxytoca
nontyphoidal Salmonella = test: Agar dilution, isolates from chickens 1998–2004; type: cell-based, Salmonella spp.
[8] = system: Salmonella serotype Typhimurium; test: Disk diffusion, food isolates Spain; type: cell-based; details: n = 53
[9] = system: Staphylococcus coagulase negative (CNS); test: Susceptibility testing; type: cell-based; details: conjunctival isolates 2000–2004
S. aureus SCVs = test: Resistance of small colony variants from cystic fibrosis patients; type: cell-based, Staphylococcus aureus; details: CF patients, Frankfurt 2004
E. coli [10] = test: E-test susceptibility; type: cell-based, Escherichia coli
[11] = system: biofilms of S. aureus (SA204 and SA195) and S. epidermidis (ATCC35983 and ATCC35984); test: Antibiotic lock, in vitro biofilm on polyurethane film, viable counts; type: cell-based, Staphylococcus species; details: any of the time intervals examined
Haemophilus influenzae = test: Susceptibility testing; type: cell-based; details: conjunctival isolates 2000–2004
[12] = system: inducible Enterobacteriaceae; test: SMART 2003, intraabdominal isolates; type: cell-based
A. baumannii = test: Italian survey of severe infections 2003, MIC; type: cell-based, Acinetobacter baumannii
E. faecalis = test: E-test susceptibility; type: cell-based, Enterococcus faecalis
Klebsiella = test: SMART 2003 Europe, microdilution; type: cell-based, Klebsiella spp.; details: 341 isolates
B.cepacia = test: Italian survey of severe infections 2003, MIC; type: cell-based, Burkholderia cepacia
[13] = system: Pseudomonas aeruginosa (PSA); test: Vitek 2 susceptibility, urine isolates of children; type: cell-based; details: both departments
E. coli [14] = test: SMART 2003 Europe, microdilution; type: cell-based, Escherichia coli; details: 1106 isolates
Gram-negative rods = test: Microscan MIC, blood culture isolates; type: cell-based
B. fragilis group = test: NCCLS broth microdilution, beta-lactamase positive isolates; type: cell-based, Bacteroides fragilis group; details: 449 isolates
Pseudomonas spp. = test: MIC; type: cell-based
Enterobacteriaceae = test: SMART 2003 Europe, microdilution; type: cell-based; details: 1948 isolates
[15] = ICU, SRGA breakpoints, tigecycline tentative S ≤2 μg/ml

CNC(C)C1CCC(N)C(OC2C(N)CC(N)C(OC3OCC(C)(O)C(NC)C3O)C2O)O1 (stereo not shown) [gentamicin]
resistant isolates (Streptococcus pneumoniae): 45.4% | resistant isolates (Staphylococcus aureus [1]): 12% | Susceptible isolates (Enterobacter spp; ICU): 99% | Susceptible isolates (Enterobacter spp; non ICU): 100% | resistance (enterococci): 66.7% | resistance rate (NCCLS M100-S13) [2]: 0% | susceptibility category (K. pneumoniae): resistant | high-level resistance [3]: 0.9% | intermediatly resistant (Shigella spp.): 34% | sensitive (Shigella spp.): 54% | resistance rate (NCCLS M100-S13) [4]: 1% | resistant isolates (Acinetobacter): 100.0% | resistance (P. aeruginosa): 86.7% | resistance (E. coli [5]): 82.7% | resistance amongst MRSA isolates (Staphylococcus aureus [6]; 1999): 58.4% | resistance amongst MRSA isolates (Staphylococcus aureus [6]; 2003): 13.1% | resistance rate [7]: 87,7% | susceptible (Escherichia coli (ECO); NAL-resistant isolates): 68.9% | susceptible (Escherichia coli (ECO); NAL-susceptible isolates): 91.2% | resistant isolates (Escherichia coli): 3.7% | Susceptible isolates (K. oxytoca; ICU): 100/100% | Susceptible isolates (K. oxytoca; non ICU): 100/100% | resistance (nontyphoidal Salmonella; Belgian collection (caecal samples; Belgium, France, Netherlands)): ≤ 1% | resistance (nontyphoidal Salmonella; Germany (carcass meat)): ≤ 1% | resistance rate (NCCLS M100-S13) [8]: 4% | resistant isolates [9]: 17.9% | resistance rate of SCV isolates (S. aureus SCVs): 46.2% | Susceptible isolates (E. coli [10]; [15]): 98/98% | Susceptible isolates (E. coli [10]; non ICU): 98/98% | significant biofilm killing [11]: not achieved | resistant isolates (Haemophilus influenzae): 1.6%

piperacillin/tazobactam
% susceptible ([12]; A/P (N = 200)): 80% | % susceptible ([12]; EU (N = 354)): 85% | % susceptible ([12]; LA (N=113)): 78% | % susceptible ([12]; NA (N = 163)): 82% | Susceptible isolates (Enterobacter spp; ICU): 78% | Susceptible isolates (Enterobacter spp; non ICU): 93% | resistance (A. baumannii): 13.3% | Susceptibility (E. faecalis; ICU, SRGA breakpoints, tigecycline tentative ≤2 μg/ml): 99% | Susceptibility (E. faecalis; non-ICU): 100% | per cent susceptible (Klebsiella): 85% | resistance (B.cepacia): 7.2% | Susceptible isolates [13]: 74-100% | per cent susceptible (E. coli [14]): 94% | resistant isolates (Acinetobacter): 43.2% | susceptible strains (n/N) (Gram-negative rods): 16/16 | susceptible (Escherichia coli (ECO); NAL-resistant isolates): 85.7% | susceptible (Escherichia coli (ECO); NAL-susceptible isolates): 94.2% | isolates inhibited at =/< 32 mg/L (B. fragilis group): > 99% | susceptible strains (Pseudomonas spp.): 92% | Susceptible isolates (K. oxytoca; ICU): 100% | Susceptible isolates (K. oxytoca; non ICU): 94% | per cent susceptible (Enterobacteriaceae): 91% | Susceptible isolates (E. coli [10]; [15]): 98% | Susceptible isolates (E. coli [10]; non ICU): 99%
